These are literature values, as cited in patent US9090623B2, “Compound JK12A and preparation thereof” (LIANYUNGANG JINKANG HEXIN PHARMACEUTICAL CO., LTD., priority 2012, dated 2015).

This data set relates to HeLa S3 cells. As to conditions: reported in Org. Lett. 2008, 10, 489-491; cited from earlier work.

Take `COC(=O)c1ccc(N2CC3CNC(=O)C2(C(=O)OC)N3C)cc1` (stereo not shown) [Aplaminal]: the “cytotoxicity against HeLa S3 cells IC50” value was 0.51 µg/mL.
